From article PMC5896955, “The signaling lipid sphingosine 1-phosphate regulates mechanical pain” (eLife, 2018)
pEC50: −log10 of the molar value.

Biological target: T1, S1P Receptor 3 (S1PR3) (Mus musculus, UniProt Q9Z0U9)
T1 construct: native receptor / S1PR3-mCherry fusion in cultured mouse DRG neurons
Assay: Fura-2 calcium imaging of DRG neurons with S1PR3 knockout control; also S1PR3-dependent tail current inhibition ([…])
Type: cell-based

T1 sequence (Q9Z0U9 whole entry, the tested form may be a part): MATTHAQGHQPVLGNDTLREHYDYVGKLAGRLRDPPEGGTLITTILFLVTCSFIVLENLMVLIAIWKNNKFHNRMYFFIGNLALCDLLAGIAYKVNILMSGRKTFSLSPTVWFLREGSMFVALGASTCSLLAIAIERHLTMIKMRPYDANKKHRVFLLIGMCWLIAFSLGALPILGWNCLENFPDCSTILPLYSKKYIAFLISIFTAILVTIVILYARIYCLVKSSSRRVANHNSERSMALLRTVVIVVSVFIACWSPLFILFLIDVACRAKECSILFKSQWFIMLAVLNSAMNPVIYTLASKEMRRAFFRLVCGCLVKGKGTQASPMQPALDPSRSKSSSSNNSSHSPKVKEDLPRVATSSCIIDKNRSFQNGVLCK

pEC50: 6.81
SMILES: CCCCCCCCCCCCC/C=C/[C@@H](O)[C@@H](N)COP(=O)(O)O [S1P, Sphingosine 1-phosphate]
